From patent US12194021B2, “Modified herbal compositions for neuromodulation” (University of Southern California, priority 2021, dated 2025)

Test: Two-week Functional Observational Battery (FOB)
Assay type: in vivo, rats
Protocol: The results shown in Table 2 indicate that D-P is the safe compound. During the two weeks, we checked the animals' fur, response to handling, etc. […] We also made sure to observe the animals continuously for 4 hours after each treatment. We mainly focused on any negative changes in the animal's mental behavior, autonomous activity, hair, glandular secretion, feces, death, etc. We found no notable changes with these evaluations.

[1] = female rats, 1 mg/kg oral daily, day0
[2] = female rats, 1 mg/kg oral daily, day3
[3] = female rats, 1 mg/kg oral daily, day5
[4] = female rats, 1 mg/kg oral daily, day8
[5] = female rats, 1 mg/kg oral daily, day10
[6] = female rats, 1 mg/kg oral daily, day12
[7] = female rats, 1 mg/kg oral daily, day14
[8] = female rats, 10 mg/kg oral daily, day0
[9] = female rats, 10 mg/kg oral daily, day3
[10] = female rats, 10 mg/kg oral daily, day5
[11] = female rats, 10 mg/kg oral daily, day8
[12] = female rats, 10 mg/kg oral daily, day10
[13] = female rats, 10 mg/kg oral daily, day12
[14] = female rats, 10 mg/kg oral daily, day14
[15] = female rats, 100 mg/kg oral daily, day0
[16] = female rats, 100 mg/kg oral daily, day3
[17] = female rats, 100 mg/kg oral daily, day5
[18] = female rats, 100 mg/kg oral daily, day8
[19] = female rats, 100 mg/kg oral daily, day10
[20] = female rats, 100 mg/kg oral daily, day12
[21] = female rats, 100 mg/kg oral daily, day14
[22] = male rats, 1 mg/kg oral daily, day0
[23] = male rats, 1 mg/kg oral daily, day3
[24] = male rats, 1 mg/kg oral daily, day5
[25] = male rats, 1 mg/kg oral daily, day8
[26] = male rats, 1 mg/kg oral daily, day10
[27] = male rats, 1 mg/kg oral daily, day12
[28] = male rats, 1 mg/kg oral daily, day14
[29] = male rats, 10 mg/kg oral daily, day0
[30] = male rats, 10 mg/kg oral daily, day3
[31] = male rats, 10 mg/kg oral daily, day5
[32] = male rats, 10 mg/kg oral daily, day8
[33] = male rats, 10 mg/kg oral daily, day10
[34] = male rats, 10 mg/kg oral daily, day12
[35] = male rats, 10 mg/kg oral daily, day14
[36] = male rats, 100 mg/kg oral daily, day0
[37] = male rats, 100 mg/kg oral daily, day3
[38] = male rats, 100 mg/kg oral daily, day5
[39] = male rats, 100 mg/kg oral daily, day8
[40] = male rats, 100 mg/kg oral daily, day10
[41] = male rats, 100 mg/kg oral daily, day12
[42] = male rats, 100 mg/kg oral daily, day14
[43] = rats, oral daily 1, 10 and 100 mg/kg, two weeks

In the case of “piperidin-1-ium (2R,3R)-2-(3,4-dihydroxy-5-oxidophenyl)-3,5-dihydroxy-4-oxochroman-7-olate [D-P]”, the “Breath (B)” value [1] is reported as 85 ± 0.5 per minute, the “Pulse (P)” value [1] is reported as 366 ± 1.0 beats/minute and the “Temperature (T)” value [1] is reported as 36.5 ± 0.4 °C. For the same substance, the “Breath (B)” value [2] was 85 ± 0.5 per minute, the “Pulse (P)” value [2] was 366 ± 0.4 beats/minute and the “Temperature (T)” value [2] was 36.5 ± 0.3 °C. The “Breath (B)” value [3] was 85 ± 0.4 per minute, the “Pulse (P)” value [3] was 366 ± 1.3 beats/minute and the “Temperature (T)” value [3] was 36.5 ± 1.1 °C. For the same substance, the “Breath (B)” value [4] was 85 ± 0.5 per minute, the “Pulse (P)” value [4] was 366 ± 4.1 beats/minute and the “Temperature (T)” value [4] was 36.5 ± 1.2 °C. The “Breath (B)” value [5] was 85 ± 0.5 per minute, the “Pulse (P)” value [5] was 366 ± 1.0 beats/minute and the “Temperature (T)” value [5] was 36.5 ± 0.4 °C. For the same substance, the “Breath (B)” value [6] was 85 ± 0.5 per minute, the “Pulse (P)” value [6] was 366 ± 7.4 beats/minute and the “Temperature (T)” value [6] was 36.5 ± 0.3 °C. The “Breath (B)” value [7] was 85 ± 0.4 per minute, the “Pulse (P)” value [7] was 366 ± 6.3 beats/minute and the “Temperature (T)” value [7] was 36.5 ± 1.1 °C. The “Breath (B)” value [8] was 86 ± 0.6 per minute, the “Pulse (P)” value [8] was 367 ± 0.5 beats/minute and the “Temperature (T)” value [8] was 36.3 ± 0.6 °C. The “Breath (B)” value [9] was 86 ± 0.5 per minute, the “Pulse (P)” value [9] was 371 ± 2.2 beats/minute and the “Temperature (T)” value [9] was 36.3 ± 0.7 °C. For the same substance, the “Breath (B)” value [10] was 86 ± 0.5 per minute, the “Pulse (P)” value [10] was 369 ± 6.8 beats/minute and the “Temperature (T)” value [10] was 36.3 ± 1.0 °C. The “Breath (B)” value [11] was 86 ± 0.5 per minute, the “Pulse (P)” value [11] was 368 ± 6.1 beats/minute and the “Temperature (T)” value [11] was 36.3 ± 1.2 °C. For the same substance, the “Breath (B)” value [12] was 86 ± 0.6 per minute, the “Pulse (P)” value [12] was 366 ± 6.5 beats/minute and the “Temperature (T)” value [12] was 36.3 ± 0.6 °C. The “Breath (B)” value [13] was 86 ± 0.5 per minute, the “Pulse (P)” value [13] was 367 ± 9.2 beats/minute and the “Temperature (T)” value [13] was 36.3 ± 0.7 °C. The “Breath (B)” value [14] was 86 ± 0.5 per minute, the “Pulse (P)” value [14] was 372 ± 6.8 beats/minute and the “Temperature (T)” value [14] was 36.3 ± 1.0 °C. For the same substance, the “Breath (B)” value [15] was 85 ± 0.6 per minute, the “Pulse (P)” value [15] was 366 ± 9.5 beats/minute and the “Temperature (T)” value [15] was 36.2 ± 0.7 °C. For the same substance, the “Breath (B)” value [16] was 85 ± 0.4 per minute, the “Pulse (P)” value [16] was 364 ± 0.5 beats/minute and the “Temperature (T)” value [16] was 36.2 ± 0.7 °C. For the same substance, the “Breath (B)” value [17] was 85 ± 0.8 per minute, the “Pulse (P)” value [17] was 371 ± 1.5 beats/minute and the “Temperature (T)” value [17] was 36.2 ± 0.7 °C. The “Breath (B)” value [18] was 85 ± 0.6 per minute, the “Pulse (P)” value [18] was 367 ± 1.5 beats/minute and the “Temperature (T)” value [18] was 36.2 ± 0.9 °C. For the same substance, the “Breath (B)” value [19] was 85 ± 0.6 per minute, the “Pulse (P)” value [19] was 369 ± 9.5 beats/minute and the “Temperature (T)” value [19] was 36.2 ± 0.7 °C. The “Breath (B)” value [20] was 85 ± 0.4 per minute, the “Pulse (P)” value [20] was 373 ± 6.5 beats/minute and the “Temperature (T)” value [20] was 36.2 ± 0.7 °C. For the same substance, the “Breath (B)” value [21] was 85 ± 0.8 per minute, the “Pulse (P)” value [21] was 371 ± 4.5 beats/minute and the “Temperature (T)” value [21] was 36.2 ± 0.7 °C. For the same substance, the “Breath (B)” value [22] was 84 ± 0.3 per minute, the “Pulse (P)” value [22] was 367 ± 2.1 beats/minute and the “Temperature (T)” value [22] was 36.1 ± 0.3 °C. For the same substance, the “Breath (B)” value [23] was 85 ± 0.4 per minute, the “Pulse (P)” value [23] was 366 ± 2.5 beats/minute and the “Temperature (T)” value [23] was 36.4 ± 0.7 °C. For the same substance, the “Breath (B)” value [24] was 85 ± 0.5 per minute, the “Pulse (P)” value [24] was 366 ± 1.5 beats/minute and the “Temperature (T)” value [24] was 36.5 ± 0.5 °C. For the same substance, the “Breath (B)” value [25] was 85 ± 0.5 per minute, the “Pulse (P)” value [25] was 366 ± 1.3 beats/minute and the “Temperature (T)” value [25] was 36.4 ± 1.0 °C. For the same substance, the “Breath (B)” value [26] was 85 ± 0.3 per minute, the “Pulse (P)” value [26] was 366 ± 0.2 beats/minute and the “Temperature (T)” value [26] was 36.5 ± 0.3 °C. For the same substance, the “Breath (B)” value [27] was 85 ± 0.5 per minute, the “Pulse (P)” value [27] was 366 ± 1.5 beats/minute and the “Temperature (T)” value [27] was 36.5 ± 0.5 °C. The “Breath (B)” value [28] was 85 ± 0.5 per minute, the “Pulse (P)” value [28] was 366 ± 1.5 beats/minute and the “Temperature (T)” value [28] was 36.5 ± 0.5 °C. For the same substance, the “Breath (B)” value [29] was 86 ± 0.2 per minute, the “Pulse (P)” value [29] was 366 ± 5.2 beats/minute and the “Temperature (T)” value [29] was 36.5 ± 0.5 °C. The “Breath (B)” value [30] was 86 ± 0.6 per minute, the “Pulse (P)” value [30] was 370 ± 0.5 beats/minute and the “Temperature (T)” value [30] was 36.4 ± 0.6 °C. The “Breath (B)” value [31] was 86 ± 0.5 per minute, the “Pulse (P)” value [31] was 374 ± 0.5 beats/minute and the “Temperature (T)” value [31] was 36.5 ± 0.5 °C. For the same substance, the “Breath (B)” value [32] was 86 ± 0.5 per minute, the “Pulse (P)” value [32] was 370 ± 1.9 beats/minute and the “Temperature (T)” value [32] was 36.4 ± 1.1 °C. For the same substance, the “Breath (B)” value [33] was 86 ± 0.2 per minute, the “Pulse (P)” value [33] was 372 ± 6.2 beats/minute and the “Temperature (T)” value [33] was 36.5 ± 0.5 °C. The “Breath (B)” value [34] was 86 ± 0.5 per minute, the “Pulse (P)” value [34] was 373 ± 4.5 beats/minute and the “Temperature (T)” value [34] was 36.5 ± 0.5 °C. For the same substance, the “Breath (B)” value [35] was 86 ± 0.5 per minute, the “Pulse (P)” value [35] was 371 ± 7.5 beats/minute and the “Temperature (T)” value [35] was 36.5 ± 0.5 °C. For the same substance, the “Breath (B)” value [36] was 86 ± 0.5 per minute, the “Pulse (P)” value [36] was 371 ± 0.6 beats/minute and the “Temperature (T)” value [36] was 36.4 ± 1.0 °C. For the same substance, the “Breath (B)” value [37] was 86 ± 0.3 per minute, the “Pulse (P)” value [37] was 365 ± 8.1 beats/minute and the “Temperature (T)” value [37] was 36.3 ± 0.7 °C. For the same substance, the “Breath (B)” value [38] was 86 ± 0.3 per minute, the “Pulse (P)” value [38] was 367 ± 0.9 beats/minute and the “Temperature (T)” value [38] was 36.4 ± 0.8 °C. For the same substance, the “Breath (B)” value [39] was 86 ± 0.5 per minute, the “Pulse (P)” value [39] was 365 ± 9.5 beats/minute and the “Temperature (T)” value [39] was 36.3 ± 1.5 °C. The “Breath (B)” value [40] was 86 ± 0.5 per minute, the “Pulse (P)” value [40] was 368 ± 8.7 beats/minute and the “Temperature (T)” value [40] was 36.4 ± 1.0 °C. The “Breath (B)” value [41] was 86 ± 0.3 per minute, the “Pulse (P)” value [41] was 371 ± 5.9 beats/minute and the “Temperature (T)” value [41] was 36.4 ± 0.8 °C. The “Breath (B)” value [42] was 86 ± 0.3 per minute, the “Pulse (P)” value [42] was 369 ± 5.9 beats/minute and the “Temperature (T)” value [42] was 36.4 ± 0.8 °C. The FOB overall observation [43] was “did not find any notable negative changes” and the deaths or injuries [43] was “No deaths or injuries”.
